Source: PubChem BioAssay AID1996
Converted amounts (≈) assume the structure as drawn.

conditions: buffer; pH 7.4; 200.0 µM

Compared with O=C(CSc1nccc(=O)[nH]1)c1c[nH]c2ccccc12, Cc1cc(C)cc(N(CCC#N)C(=O)CSc2nc3ccccc3c(=O)[nH]2)c1 is lower in solubility kinetic: greater than 42.8 µg/mL for the first, 28.8 µg/mL (≈ 73.4 µM) for the second.

O=C(NCCCc1nc2ccccc2[nH]1)c1ccco1 and COCCCNC(=O)c1cc(-c2cccnc2)nc2ccccc12 cannot be ordered by solubility kinetic: greater than 40.4 µg/mL for the first, greater than 48.2 µg/mL for the second.

Going from O=C(NC(=S)Nc1ccccc1)c1cccs1 to CCc1ccccc1NC(=O)COC(=O)c1cccs1, the solubility kinetic rises from 1.4 µg/mL (≈ 5.34 µM) to 2.9 µg/mL (≈ 10 µM) (2.1-fold).

O=C(c1c(F)cccc1F)N1CCC(O)(c2ccc(F)cc2)CC1 and O=C(c1c(F)cccc1F)N1CCCC1 cannot be ordered by solubility kinetic: 49 µg/mL (≈ 146 µM) for the first, greater than 31.7 µg/mL for the second.

COc1ccc(CNc2ncnc3cc(OC)c(OC)cc23)cc1OC and COc1ccc(C2(C)NC(=O)NC2=O)cc1OC (stereo unspecified) cannot be ordered by solubility kinetic: greater than 53.3 µg/mL for the first, greater than 37.5 µg/mL for the second.

First: COc1ccc(NC(=O)c2cc(C)cc(C)c2)cc1[N+](=O)[O-]
Second: COCCn1c(=O)[nH]c2cc(C(=O)Nc3cccc(F)c3)ccc2c1=O
The solubility kinetic of the first is lower: less than 0.3 µg/mL for the first, 6.2 µg/mL (≈ 17.4 µM) for the second.

Going from CC(=NCc1cccnc1)c1c(O)n(-c2ccc(Cl)cc2)c(=O)[nH]c1=O to Fc1ccc(CNc2nc(-c3cccnc3)nc3ccccc23)cc1, the solubility kinetic rises from 2 µg/mL (≈ 5.39 µM) to 5.6 µg/mL (≈ 17 µM) (2.8-fold).

First: CCC(=O)c1ccc(OCC(=O)N2CCCC2)c(OC)c1
Second: Cc1ccccc1OCC(=O)NCC(c1ccco1)N1CCCCC1 (stereo unspecified)
The solubility kinetic of the first is higher: greater than 43.7 µg/mL for the first, 40.1 µg/mL (≈ 117 µM) for the second.

O=C(NCCCn1ccnc1)c1cc2c(s1)CCCC2 and CSc1ccc(CNCCN2CCOCC2)cc1.Cl cannot be ordered by solubility kinetic: greater than 43.4 µg/mL for the first, greater than 50.9 µg/mL for the second.

Going from CCOc1ccc(S(=O)(=O)N(C)c2ccc(OCC(=O)NCC3CCCCC3)cc2)cc1 to CCOc1ccc(S(=O)(=O)NC(Cc2cnc[nH]2)C(=O)O)cc1 (stereo unspecified), the solubility kinetic rises from 3.1 µg/mL (≈ 6.73 µM) to 25.8 µg/mL (≈ 76 µM) (8.3-fold).

Going from CCCc1c(C)nc(N2CCN(c3ccc(F)cc3)CC2)[nH]c1=O to Cl.OCCN1CCN(c2nc3ccccc3nc2-c2ccccc2)CC1, the solubility kinetic rises from 1.2 µg/mL (≈ 3.63 µM) to greater than 55.6 µg/mL.

CCS(=O)(=O)N1CCN(CC(=O)NC2CCCCC2)CC1.Cl and CCCCNC(=O)C1CCN(S(=O)(=O)N2CCOCC2)CC1 cannot be ordered by solubility kinetic: greater than 53.1 µg/mL for the first, greater than 50 µg/mL for the second.

First: Cc1ccc(NC(=O)c2ccco2)c(NC(=O)COc2ccccc2)c1
Second: COc1ccc(CNC(=O)COC(=O)c2cc(C)nc3ccccc23)cc1
The solubility kinetic of the first is 3.5-fold lower: 5.3 µg/mL (≈ 15.1 µM) for the first, 18.3 µg/mL (≈ 50.2 µM) for the second.

Going from Cc1ccc(CNc2ccccc2C(=O)O)s1 to O=C(O)c1cc([N+](=O)[O-])ccc1NCc1ccccc1Cl, the solubility kinetic rises from 23 µg/mL (≈ 93 µM) to 45 µg/mL (≈ 147 µM) (2-fold).

Going from Cc1nc(N=C(N)N)nc2ccccc12 to Fc1cc(F)nc(NCc2ccccc2)n1, the solubility kinetic falls from greater than 30.2 µg/mL to 12.2 µg/mL (≈ 55.2 µM).

First: O=C(OCc1cnc(Cl)s1)c1c(F)cccc1F
Second: CC(=O)Nc1nc2c(C)c(Cl)ccc2s1
The solubility kinetic of the first is higher: 21.5 µg/mL (≈ 74.2 µM) for the first, less than 0.3 µg/mL for the second.

Compared with Cc1csc(NC(=O)CN2C(=O)c3ccccc3C2=O)c1C(N)=O, O=C1c2ccccc2C(=O)N1CCc1ccccc1 is 1.7-fold lower in solubility kinetic: 13 µg/mL (≈ 37.9 µM) for the first, 7.8 µg/mL (≈ 31 µM) for the second.

Going from CC(=O)Nc1ccc(S(=O)(=O)N(C)CC(=O)OCC(=O)c2ccc[nH]2)cc1 to O=C(/C=C/c1ccc(F)cc1)OCC(=O)c1ccc[nH]1, the solubility kinetic falls from greater than 59 µg/mL to 2.6 µg/mL (≈ 9.51 µM).

Going from CCOc1ccccc1N1CN(C2CCCCC2)CNC1=S to S=C(Nc1ccccc1Oc1ccccc1)NC1CCCC1, the solubility kinetic falls from greater than 47.9 µg/mL to 5 µg/mL (≈ 16 µM).

First: CC1=CC(C)(C)[N+](C)(C)c2ccccc21.[I-]
Second: Cc1ccc2[nH]c3c(c2c1)SC(C)(C)CC3=O
The solubility kinetic of the first is 51-fold higher: 41 µg/mL for the first, 0.8 µg/mL (≈ 3.26 µM) for the second.

Cl.O=C(CCN1CCOCC1)NC12CC3CC(CC(C3)C1)C2 and Cl.O=C(NC12CC3CC(CC(C3)C1)C2)OC1CN2CCC1CC2 (stereo unspecified) are within 1.5-fold of each other in solubility kinetic: 48.9 µg/mL for the first, 47.7 µg/mL for the second.

Compared with ONC(=Nc1ccccc1Cl)c1ccccc1Cl, COc1ccccc1NC(=O)Nc1ccccc1C#N is lower in solubility kinetic: greater than 42.2 µg/mL for the first, 24.8 µg/mL (≈ 92.8 µM) for the second.

Going from COc1ccccc1P(=O)(c1ccccc1)c1ccccc1NC(C)=O (stereo unspecified) to [Br-].c1ccc(C[n+]2ccc3ccccc3c2)cc1, the solubility kinetic falls from greater than 54.8 µg/mL to 43.9 µg/mL.

Compared with CC(C)S(=O)(=O)c1csc(NC(=O)Nc2ccc(Cl)cc2)c1Cl, CCCNC(=O)NS(=O)(=O)c1ccc(Cl)cc1 is higher in solubility kinetic: less than 0.4 µg/mL for the first, greater than 41.5 µg/mL for the second.

Going from COc1ccc(NC(=O)CN(C)C(=O)Cc2ccsc2)cc1 to COc1ccc(OC)c(NC(=O)COC(=O)CCS(=O)(=O)c2ccc(Cl)cc2)c1, the solubility kinetic falls from 42 µg/mL (≈ 132 µM) to 27.5 µg/mL (≈ 62.2 µM) (1.5-fold).

O=C(CN1C(=O)NC2(CCCCCC2)C1=O)c1cccs1 and CC1(c2ccc3ccccc3c2)NC(=O)N(CC(N)=O)C1=O (stereo unspecified) cannot be ordered by solubility kinetic: greater than 46 µg/mL for the first, greater than 44.6 µg/mL for the second.

Compared with CCCOC(=O)Nc1ccc(S(=O)(=O)Nc2ncccn2)cc1, CSc1ccc(S(=O)(=O)N2CCC(C(=O)NCc3ccccn3)CC2)cc1 is lower in solubility kinetic: greater than 50.5 µg/mL for the first, 49.9 µg/mL (≈ 123 µM) for the second.

First: Cc1ccc(C)c(N2N=C(C(=O)O)CCC2=O)c1
Second: Cc1ccc(-c2csc3nc(C(C)C)oc(=O)c23)c(C)c1
The solubility kinetic of the first is higher: greater than 36.9 µg/mL for the first, 3.9 µg/mL (≈ 13 µM) for the second.

First: O=C1ON=C(c2cccc([N+](=O)[O-])c2)/C1=C/c1ccc(O)cc1
Second: O=C(c1cccc([N+](=O)[O-])c1)c1ccc2[nH]c(=O)[nH]c2c1
The solubility kinetic of the first is higher: greater than 46.5 µg/mL for the first, 8 µg/mL (≈ 28.2 µM) for the second.

First: COc1cc(OC)cc(C(=O)NCCSCc2ccc(Cl)cc2)c1
Second: COc1cc(/C=C/C(=O)OCC(=O)NCc2ccc(F)cc2)ccc1O
The solubility kinetic of the first is lower: 5.2 µg/mL (≈ 14.2 µM) for the first, greater than 53.9 µg/mL for the second.

Going from CCN1C(=O)N(CC)c2cccc3cccc1c23 to Cc1c(C(=O)O)sc2c1c(=O)n(Cc1ccccc1)c(=O)n2C, the solubility kinetic rises from 1.6 µg/mL (≈ 6.66 µM) to greater than 49.6 µg/mL.

Compared with Cc1cc(NC(=O)CSc2ccnc(=O)[nH]2)no1, COC(=O)c1ccc(/C=C/C(=O)OCC(=O)Nc2cc(C)on2)cc1 is lower in solubility kinetic: greater than 39.9 µg/mL for the first, 3 µg/mL (≈ 8.71 µM) for the second.

C=CCNC(=S)N1CCN(c2ncc(C(F)(F)F)cc2Cl)CC1 and c1ccc(-c2cnc(CN3CCN(c4ccccc4)CC3)o2)cc1 are within 1.5-fold of each other in solubility kinetic: 35.7 µg/mL (≈ 97.9 µM) for the first, 40 µg/mL (≈ 125 µM) for the second.

Going from Cl.c1ccc(CCNCc2cccs2)cc1 to O=C(COC(=O)c1ccc2c(c1)OCCO2)NCCc1ccccc1, the solubility kinetic falls from 32.6 µg/mL to 11.7 µg/mL (≈ 34.3 µM) (2.8-fold).

Going from NC(=O)C[C@H](NC(=O)c1ccc(Cl)cc1)C(=O)OCc1ccccc1 to O=C(CN1CCCC1)Nc1ccccc1C(=O)c1ccccc1, the solubility kinetic falls from greater than 54.1 µg/mL to 44 µg/mL (≈ 143 µM).

Cl.c1ccc([C@H]2CN3CCSC3=N2)cc1 and CN1CCC(CN)(N2CCN(c3ccccc3)CC2)CC1 cannot be ordered by solubility kinetic: greater than 36.1 µg/mL for the first, 41.9 µg/mL (≈ 145 µM) for the second.

First: COc1ccc(OC)c2sc(N3CCc4ccccc4C3)nc12
Second: COc1ccc(-c2cc(C3CC3)nc(N)c2C#N)cc1
The solubility kinetic of the first is 2.8-fold lower: 0.6 µg/mL (≈ 1.84 µM) for the first, 1.7 µg/mL (≈ 6.41 µM) for the second.

Cc1ccc(S(=O)(=O)N2CCN(C(=O)N(C)C)CC2)cc1 and COc1ccc(CCC(=O)NC(C)C2CCCO2)cc1 (stereo unspecified) cannot be ordered by solubility kinetic: greater than 46.7 µg/mL for the first, greater than 41.6 µg/mL for the second.

Compared with Cc1cc(C)c(NC(=S)NCCO)c(C)c1, CCOC(=O)c1sc2nc(C)nc(NC3CCC(O)CC3)c2c1C (stereo unspecified) is lower in solubility kinetic: greater than 35.8 µg/mL for the first, less than 0.2 µg/mL for the second.

Cn1ccsc1=NC(=O)c1ccc(=O)[nH]c1 and CC(C)Oc1cccc(C(=O)NC2=NCCS2)c1 are within 1.5-fold of each other in solubility kinetic: 30.6 µg/mL (≈ 130 µM) for the first, 22 µg/mL (≈ 83.2 µM) for the second.

CC1(c2ccccc2)NC(=O)N(CC(=O)N(c2ccccc2)C2CCS(=O)(=O)C2)C1=O (stereo unspecified) and Cc1c(Cl)cccc1NC(=O)C1C2C=CC(C2)C1C(=O)O (stereo unspecified) cannot be ordered by solubility kinetic: 60.3 µg/mL (≈ 137 µM) for the first, greater than 45.9 µg/mL for the second.

Going from COc1cccc(-c2nc(=S)c3c(o2)CCCC3)c1 to O=c1ccc2cc3c([nH]c4ccc(Br)cc43)oc-2c1O, the solubility kinetic rises from 12.1 µg/mL (≈ 44.3 µM) to greater than 49.5 µg/mL.

O=C1NCC(NC(=O)C(F)(F)F)c2cc3c(cc21)OCO3 (stereo unspecified) and CC1CN(C(=O)c2ccc([N+](=O)[O-])s2)CC(C)O1 (stereo unspecified) cannot be ordered by solubility kinetic: greater than 45.3 µg/mL for the first, greater than 40.5 µg/mL for the second.
